Earlier results, collected in EP2508186A1, “Phenoxazinones or phenothiazones as inhibitors of amyloid formation” (Max-Delbrück-Centrum für Molekulare Medizin, priority 2011, dated 2012).

Biological target: T1, Aβ42 (Homo sapiens, UniProt P05067)
T1 construct: the amyloid-β 1-42 (Aβ42) peptide
Settings: previous biochemical investigations; cited from earlier work

T1 sequence (P05067 672-713 limits assumed): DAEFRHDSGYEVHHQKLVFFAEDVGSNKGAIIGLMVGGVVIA

SMILES: CN(C)c1ccc2nc3ccc(=[N+](C)C)cc-3sc2c1 [methylene blue]
- effect on Aβ42 fibrillogenesis and A11-reactive oligomers: promotes Aβ42 fibrillogenesis and thereby reduces the amount of A11-reactive, potentially toxic amyloid oligomers
